From ChEMBL document CHEMBL1857833, “Screening and optimization of specific chemical series against human African Trypanosomiasis (HAT)” come the findings set out here.

Converted amounts (≈) assume the structure as drawn.

The nature of data set [1]: DNDI: Cytotoxicity against L929 mouse fibroblasts, 72 hour. The class given is toxicity, cell-based. The conditions noted are these: mouse, L929 mouse fibroblasts.
The test system of the next data set is Trypanosoma brucei. Kind of data set: DNDI: Inhibition of Human African Trypanosomiasis, SBRI 427, in vitro. The class given is functional, organism-based. The conditions noted are these: Trypanosoma brucei, SBRI 427; read-out: IC50.
For data set [2] the following is noted: mouse, microsomes, 1 µM.
Description: DNDI: in vitro intrinsic clearance in mouse liver microsomes at a concentration of 1uM
A further data set in a line: in vitro. The conditions noted are these: mouse, liver microsomes, t (1 / 2). A general note: Liver microsomes are a subcellular fraction often used to study metabolism.
Data set [3] in a line: DNDI: Cytotoxicity against L929 mouse fibroblasts, CYTO-SP, 24 hour. The format is toxicity, cell-based. The conditions noted are these: mouse, L929 mouse fibroblasts.

Description for in vitro: DNDI: half life in mouse liver microsomes at a concentration of 1uM

The term IC50 denotes the point on the concentration scale where inhibition reaches its midpoint. One may read the half-life as the time in which the quantity being followed falls by half. Read a high half-life as slow loss. Take `CCc1ccc(Oc2ncccc2/C(=N\O)NC2CCCC[C@H]2N)cc1` (stereo partly drawn): the IC50 at 72 h in data set [1] is above 10 µg/mL. The half-inhibitory concentration (IC50) in the data set with Trypanosoma brucei is above 5 µg/mL. The CLint in vitro in data set [2] amounted to 2 µL/min/mg. In the data set “in vitro”, this compound displayed a half-life at 1 µM of 353 min.
The compound `CC(C)(C)CNCc1coc(-c2ccc(OCC(C)(C)C)cc2)n1` yielded an IC50 at 72 h in data set [1] of 1.35 µg/mL (≈ 4.09 µM). Besides, the 50% inhibitory concentration (IC50) in the data set on Trypanosoma brucei was found to be 0.42 µg/mL (≈ 1.27 µM). The compound further gave a CLint in vitro in data set [2] of 3 µL/min/mg. Moreover, the half-life at 1 µM in the data set “in vitro” is 267 min.
Take `CCCCc1ccc(-c2nc(CN3CCN(C)CC3)co2)cc1`: half-maximal inhibition in data set [1] (IC50 at 72 h) required 3.75 µg/mL (≈ 12 µM). The IC50 in the data set on Trypanosoma brucei turned out to be 2.22 µg/mL (≈ 7.08 µM). Further, the CLint in vitro in data set [2] turned out to be 31 µL/min/mg. This compound also showed a half-life at 1 µM in the data set “in vitro” of 27 min.
The matching figures for `CC(C)Oc1ccc(-c2nc(CNC[C@@H]3CC[C@H]4C[C@@H]3C4(C)C)co2)cc1`: 1.36 µg/mL (≈ 3.69 µM), 1.06 µg/mL (≈ 2.88 µM), 45 µL/min/mg and 19 min.
In data set [3], `CC1(C)[C@H]2CC[C@@H](CNCc3coc(-c4sccc4Cl)n3)[C@@H]1C2` showed a half-inhibitory concentration (IC50) at 24 h above 50 µg/mL. In data set [1], this compound showed an IC50 at 72 h above 50 µg/mL. Also, the concentration for half-maximal inhibition (IC50) with Trypanosoma brucei was above 5 µg/mL.
In data set [1], `CCCCc1ccc(-c2nc(CNC(C)C)co2)cc1` showed a half-maximal inhibitory concentration (IC50) at 72 h of 5.7 µg/mL (≈ 20.9 µM). Moreover, the 50% inhibitory concentration (IC50) in the data set with Trypanosoma brucei was 2.22 µg/mL (≈ 8.15 µM). This compound also displayed a CLint in vitro in data set [2] of 50 µL/min/mg. The half-life at 1 µM in the data set “in vitro” is 17 min.
As to `CCCCCC(C)NCc1coc(-c2cccc(F)c2F)n1` (stereo not drawn), the IC50 at 24 h in data set [3] is above 50 µg/mL. The compound also came in with an IC50 at 72 h in data set [1] of 10.7 µg/mL (≈ 34.5 µM). Besides, in the data set with Trypanosoma brucei, the 50% inhibitory concentration (IC50) was determined as 4.08 µg/mL (≈ 13.2 µM).
With `CCCCCC(C)NCc1coc(-c2ccc(Oc3ccc(C)cc3)cc2)n1` (stereo not drawn), the concentration for half-maximal inhibition (IC50) at 72 h in data set [1] was 1.42 µg/mL (≈ 3.75 µM). In the data set with Trypanosoma brucei, the IC50 was found to be 0.3 µg/mL (≈ 0.793 µM). The same compound showed a CLint in vitro in data set [2] of 12 µL/min/mg. In addition, the half-life at 1 µM in “in vitro” came out at 70 min.
Turning to `CCCCc1ccc(-c2nc(CNCc3ccc(OC)cc3)co2)cc1`, the midpoint of inhibition in data set [1], the IC50 at 72 h, lay at 3.13 µg/mL (≈ 8.93 µM). For the same compound, in data set [2], the CLint in vitro came to 16 µL/min/mg. The compound further showed a half-life at 1 µM in the data set “in vitro” of 53 min.
`COc1ccccc1CNC(c1nc(-c2ccccc2)c(N2CCOCC2)o1)C1CC1` (stereo not drawn) registered a 50% inhibitory concentration (IC50) at 72 h in data set [1] above 10 µg/mL. In the data set with Trypanosoma brucei, the concentration for half-maximal inhibition (IC50) came out at 5 µg/mL (≈ 11.9 µM). For the same compound, the CLint in vitro in data set [2] came to 300 µL/min/mg. The same compound yielded a half-life at 1 µM in “in vitro” of 3 min.
`CCCCCC(C)NCc1coc(Cc2ccc(OC)cc2)n1` (stereo not drawn) returned a concentration for half-maximal inhibition (IC50) at 72 h in data set [1] of 10 µg/mL (≈ 31.6 µM). In the data set with Trypanosoma brucei, the IC50 was determined as 3.24 µg/mL (≈ 10.2 µM). The compound also had a CLint in vitro in data set [2] of 55 µL/min/mg. The half-life at 1 µM in the data set “in vitro” stood at 16 min.
`CCCCCC(C)NCc1coc(-c2c(F)cccc2F)n1` (stereo not drawn): the IC50 at 24 h in data set [3] is above 50 µg/mL. In data set [1], the IC50 at 72 h came to 18.7 µg/mL (≈ 60.6 µM). Also, in the data set with Trypanosoma brucei, the IC50 is 4.83 µg/mL (≈ 15.7 µM).
Regarding `CCCCCC(C)NCc1coc(-c2ccc(OCCc3ccccc3)cc2)n1` (stereo not drawn), in data set [1], the IC50 at 72 h amounted to 0.72 µg/mL (≈ 1.83 µM). The IC50 with Trypanosoma brucei amounted to 0.39 µg/mL (≈ 0.994 µM). The compound further showed a CLint in vitro in data set [2] of 39 µL/min/mg. In the data set “in vitro”, this compound displayed a half-life at 1 µM of 22 min.
Regarding `CCCCCC(C)NCc1coc(-c2ccc(OCc3ccc(C)cc3)cc2)n1` (stereo not drawn), the IC50 at 72 h in data set [1] turned out to be 1.27 µg/mL (≈ 3.24 µM). Further, the IC50 with Trypanosoma brucei amounted to 0.31 µg/mL (≈ 0.79 µM). The same compound displayed a CLint in vitro in data set [2] of 13 µL/min/mg. In the data set “in vitro”, this compound displayed a half-life at 1 µM of 64 min.
The matching figures for `CCCCCC(C)NCc1coc(-c2ccc(Oc3ccc(F)cc3)cc2)n1` (stereo not drawn): 1.63 µg/mL (≈ 4.26 µM), 0.44 µg/mL (≈ 1.15 µM), 13 µL/min/mg and 63 min.
On to `Cc1ccc(/C(=N/O)NC2CCCCC2)c(Oc2c(F)cccc2F)n1`, for which the IC50 at 72 h in data set [1] was above 10 µg/mL. Further, the IC50 in the data set with Trypanosoma brucei was found to be 1.05 µg/mL (≈ 2.91 µM). In data set [2], the CLint in vitro turned out to be 255 µL/min/mg. In “in vitro”, this compound returned a half-life at 1 µM of 3 min.
With `CCCCCC(C)NCc1coc(-c2ccc(OCCCC)c(F)c2)n1` (stereo not drawn), half-maximal inhibition in data set [1] (IC50 at 72 h) required 0.73 µg/mL (≈ 2.01 µM). Moreover, the IC50 in the data set with Trypanosoma brucei turned out to be 0.37 µg/mL (≈ 1.02 µM). This compound also registered a CLint in vitro in data set [2] of 11 µL/min/mg. The compound also displayed a half-life at 1 µM in “in vitro” of 75 min.
The compound `Cc1ccc(/C(=N/O)Nc2cccc(F)c2)c(Oc2ccc(C(C)(C)C)cc2)n1` registered an IC50 at 72 h in data set [1] of 5.39 µg/mL (≈ 13.7 µM). Also, in the data set on Trypanosoma brucei, the IC50 is 0.32 µg/mL (≈ 0.813 µM). Besides, the CLint in vitro in data set [2] was 31.75 µL/min/mg. Further, in the data set “in vitro”, the half-life at 1 µM was 26.8 min.
In the case of `CC1CC(NCc2coc(-c3sccc3Cl)n2)CC(C)(C)C1` (stereo not drawn), the IC50 at 24 h in data set [3] is above 50 µg/mL. Moreover, the half-inhibitory concentration (IC50) at 72 h in data set [1] was above 50 µg/mL. Further, the IC50 with Trypanosoma brucei is above 5 µg/mL.
With `CCCCc1ccc(-c2nc(CNC(C)CC)co2)cc1` (stereo not drawn), 2.75 µg/mL (≈ 9.6 µM) corresponded to half-maximal inhibition in data set [1] (IC50 at 72 h). Also, the 50% inhibitory concentration (IC50) in the data set with Trypanosoma brucei is 0.74 µg/mL (≈ 2.58 µM). In data set [2], this compound registered a CLint in vitro of 42 µL/min/mg. Besides, the half-life at 1 µM in the data set “in vitro” worked out at 20 min.
Regarding `CC(C)Oc1ccc(-c2nc(CN[C@@H]3C[C@@H]4C[C@H]([C@H]3C)C4(C)C)co2)cc1`, in data set [1], the IC50 at 72 h is 1.9 µg/mL (≈ 5.16 µM). Further, the IC50 with Trypanosoma brucei worked out at 1.37 µg/mL (≈ 3.72 µM). The compound further displayed a CLint in vitro in data set [2] of 11 µL/min/mg. Moreover, the half-life at 1 µM in the data set “in vitro” was found to be 79 min.
For the compound `CCCCCC(C)NCc1coc(-c2ccc(OCc3ccc(Cl)cc3)cc2)n1` (stereo not drawn), the IC50 at 72 h in data set [1] is 1.67 µg/mL (≈ 4.04 µM). The half-inhibitory concentration (IC50) with Trypanosoma brucei is 0.47 µg/mL (≈ 1.14 µM). In data set [2], this compound had a CLint in vitro of 21 µL/min/mg. Moreover, in the data set “in vitro”, the half-life at 1 µM came out at 41 min.
